Measured values published in US10765114B2, “4-amino-6-(pyridyl and 2-substitutedphenyl)-picolinates and 6-amino-2-(pyridyl and 2-substitutedphenyl)-pyrimidine-4-carboxylates and their use as herbicides” (Dow AgroSciences LLC, priority 2013, dated 2020).

Tested on: Key Broadleaf Weed and Crop Species
Test: Post-Emergent Test II (Table 5)
Type: in vivo
Settings: Abutilon theophrasti, post-emergence, 336 h, ABUTH: velvetleaf (Abutilon theophrasti), application rate 70 (kg ai/ha; footnote: g ai/ha), read-out: Visual Growth Reduction (%) 14 Days After Application ABUTH
Method in brief: (§1)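 Plants grown in a greenhouse (~15 h photoperiod, 23-29° C day) to first or second true leaf stage were sprayed post-emergence at 187 L/ha with compound in acetone/DMSO-based aqueous spray containing crop oil concentrate and surfactant, applied at a high rate plus ½× to 1/16× serial rates. Injury was scored visually 14 days later, 0-100% versus untreated plants.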

Row | Compound | pest or weed control at 70 g/ha
1 | COC(=O)c1nc(-c2ccc(C(F)(F)F)nc2F)nc(N)c1Cl [Compound 47] | 0 to 29%

Same assay, conditions: Abutilon theophrasti, post-emergence, 336 h, ABUTH: velvetleaf (Abutilon theophrasti), application rate 140 (kg ai/ha; footnote: g ai/ha), read-out: Visual Growth Reduction (%) 14 Days After Application ABUTH

Row | Compound | pest or weed control at 140 g/ha
2 | COC(=O)c1nc(-c2ccc(C(F)(F)F)nc2F)nc(N)c1Cl [Compound 47] | 0 to 29%

Same assay, conditions: Amaranthus retroflexus, post-emergence, 336 h, AMARE: redroot pigweed (Amaranthus retroflexus), application rate 70 (kg ai/ha; footnote: g ai/ha), read-out: Visual Growth Reduction (%) 14 Days After Application AMARE

Row | Compound | pest or weed control at 70 g/ha
3 | COC(=O)c1nc(-c2ccc(C(F)(F)F)nc2F)nc(N)c1Cl [Compound 47] | 0 to 29%

Same assay, conditions: Amaranthus retroflexus, post-emergence, 336 h, AMARE: redroot pigweed (Amaranthus retroflexus), application rate 140 (kg ai/ha; footnote: g ai/ha), read-out: Visual Growth Reduction (%) 14 Days After Application AMARE

Row | Compound | pest or weed control at 140 g/ha
4 | COC(=O)c1nc(-c2ccc(C(F)(F)F)nc2F)nc(N)c1Cl [Compound 47] | 0 to 29%

Same assay, conditions: Brassica napus, post-emergence, 336 h, BRSSS: oilseed rape, canola (Brassica napus), application rate 70 (kg ai/ha; footnote: g ai/ha), read-out: Visual Growth Reduction (%) 14 Days After Application BRSSS

Row | Compound | pest or weed control at 70 g/ha
5 | COC(=O)c1nc(-c2ccc(C(F)(F)F)nc2F)nc(N)c1Cl [Compound 47] | 0 to 29%

Same assay, conditions: Brassica napus, post-emergence, 336 h, BRSSS: oilseed rape, canola (Brassica napus), application rate 140 (kg ai/ha; footnote: g ai/ha), read-out: Visual Growth Reduction (%) 14 Days After Application BRSSS

Row | Compound | pest or weed control at 140 g/ha
6 | COC(=O)c1nc(-c2ccc(C(F)(F)F)nc2F)nc(N)c1Cl [Compound 47] | 0 to 29%

Same assay, conditions: Chenopodium album, post-emergence, 336 h, CHEAL: lambsquarters (Chenopodium album), application rate 70 (kg ai/ha; footnote: g ai/ha), read-out: Visual Growth Reduction (%) 14 Days After Application CHEAL

Row | Compound | pest or weed control at 70 g/ha
7 | COC(=O)c1nc(-c2ccc(C(F)(F)F)nc2F)nc(N)c1Cl [Compound 47] | 0 to 29%

Same assay, conditions: Chenopodium album, post-emergence, 336 h, CHEAL: lambsquarters (Chenopodium album), application rate 140 (kg ai/ha; footnote: g ai/ha), read-out: Visual Growth Reduction (%) 14 Days After Application CHEAL

Row | Compound | pest or weed control at 140 g/ha
8 | COC(=O)c1nc(-c2ccc(C(F)(F)F)nc2F)nc(N)c1Cl [Compound 47] | 45 to 59%

Same assay, conditions: Euphorbia heterophylla, post-emergence, 336 h, EPHHL: wild poinsettia (Euphorbia heterophylla), application rate 70 (kg ai/ha; footnote: g ai/ha), read-out: Visual Growth Reduction (%) 14 Days After Application EPHHL

Row | Compound | pest or weed control at 70 g/ha
9 | COC(=O)c1nc(-c2ccc(C(F)(F)F)nc2F)nc(N)c1Cl [Compound 47] | 0 to 29%

Same assay, conditions: Euphorbia heterophylla, post-emergence, 336 h, EPHHL: wild poinsettia (Euphorbia heterophylla), application rate 140 (kg ai/ha; footnote: g ai/ha), read-out: Visual Growth Reduction (%) 14 Days After Application EPHHL

Row | Compound | pest or weed control at 140 g/ha
10 | COC(=O)c1nc(-c2ccc(C(F)(F)F)nc2F)nc(N)c1Cl [Compound 47] | 0 to 29%

Same assay, conditions: Helianthus annuus, post-emergence, 336 h, HELAN: sunflower (Helianthus annuus), application rate 70 (kg ai/ha; footnote: g ai/ha), read-out: Visual Growth Reduction (%) 14 Days After Application HELAN

Row | Compound | pest or weed control at 70 g/ha
11 | COC(=O)c1nc(-c2ccc(C(F)(F)F)nc2F)nc(N)c1Cl [Compound 47] | 0 to 29%

Same assay, conditions: Helianthus annuus, post-emergence, 336 h, HELAN: sunflower (Helianthus annuus), application rate 140 (kg ai/ha; footnote: g ai/ha), read-out: Visual Growth Reduction (%) 14 Days After Application HELAN

Row | Compound | pest or weed control at 140 g/ha
12 | COC(=O)c1nc(-c2ccc(C(F)(F)F)nc2F)nc(N)c1Cl [Compound 47] | 0 to 29%

Same assay, conditions: Viola tricolor, post-emergence, 336 h, VIOTR: wild pansy (Viola tricolor), application rate 70 (kg ai/ha; footnote: g ai/ha), read-out: Visual Growth Reduction (%) 14 Days After Application VIOTR

Row | Compound | pest or weed control at 70 g/ha
13 | COC(=O)c1nc(-c2ccc(C(F)(F)F)nc2F)nc(N)c1Cl [Compound 47] | 0 to 29%

Same assay, conditions: Viola tricolor, post-emergence, 336 h, VIOTR: wild pansy (Viola tricolor), application rate 140 (kg ai/ha; footnote: g ai/ha), read-out: Visual Growth Reduction (%) 14 Days After Application VIOTR

Row | Compound | pest or weed control at 140 g/ha
14 | COC(=O)c1nc(-c2ccc(C(F)(F)F)nc2F)nc(N)c1Cl [Compound 47] | 0 to 29%

Tested on: Key Grass and Sedge Weeds as well as Grass Crops
Test: Post-Emergent Test II (Table 6)
Type: in vivo
Settings: post-emergence, 336 h, CYPSS, 70 g ai/ha, 14 days after application, read-out: Visual Growth Reduction (%) 14 Days After Application CYPSS
Method in brief: as §1

Row | Compound | pest or weed control at 70 g/ha
15 | COC(=O)c1nc(-c2ccc(C(F)(F)F)nc2F)nc(N)c1Cl [Compound 47] | 0 to 29%

Same assay, conditions: post-emergence, 336 h, CYPSS, 140 g ai/ha, 14 days after application, read-out: Visual Growth Reduction (%) 14 Days After Application CYPSS

Row | Compound | pest or weed control at 140 g/ha
16 | COC(=O)c1nc(-c2ccc(C(F)(F)F)nc2F)nc(N)c1Cl [Compound 47] | 0 to 29%

Same assay, conditions: post-emergence, 336 h, DIGSA: crabgrass (Digitaria sanguinalis), 70 g ai/ha, 14 days after application, read-out: Visual Growth Reduction (%) 14 Days After Application DIGSA

Row | Compound | pest or weed control at 70 g/ha
17 | COC(=O)c1nc(-c2ccc(C(F)(F)F)nc2F)nc(N)c1Cl [Compound 47] | 0 to 29%

Same assay, conditions: post-emergence, 336 h, DIGSA: crabgrass (Digitaria sanguinalis), 140 g ai/ha, 14 days after application, read-out: Visual Growth Reduction (%) 14 Days After Application DIGSA

Row | Compound | pest or weed control at 140 g/ha
18 | COC(=O)c1nc(-c2ccc(C(F)(F)F)nc2F)nc(N)c1Cl [Compound 47] | 0 to 29%

Same assay, conditions: post-emergence, 336 h, ECHSS, 70 g ai/ha, 14 days after application, read-out: Visual Growth Reduction (%) 14 Days After Application ECHSS

Row | Compound | pest or weed control at 70 g/ha
19 | COC(=O)c1nc(-c2ccc(C(F)(F)F)nc2F)nc(N)c1Cl [Compound 47] | 0 to 29%

Same assay, conditions: post-emergence, 336 h, ECHSS, 140 g ai/ha, 14 days after application, read-out: Visual Growth Reduction (%) 14 Days After Application ECHSS

Row | Compound | pest or weed control at 140 g/ha
20 | COC(=O)c1nc(-c2ccc(C(F)(F)F)nc2F)nc(N)c1Cl [Compound 47] | 0 to 29%

Same assay, conditions: post-emergence, 336 h, ORYSS (crop), 70 g ai/ha, 14 days after application, read-out: Visual Growth Reduction (%) 14 Days After Application ORYSS

Row | Compound | pest or weed control at 70 g/ha
21 | COC(=O)c1nc(-c2ccc(C(F)(F)F)nc2F)nc(N)c1Cl [Compound 47] | 0 to 29%

Same assay, conditions: post-emergence, 336 h, ORYSS (crop), 140 g ai/ha, 14 days after application, read-out: Visual Growth Reduction (%) 14 Days After Application ORYSS

Row | Compound | pest or weed control at 140 g/ha
22 | COC(=O)c1nc(-c2ccc(C(F)(F)F)nc2F)nc(N)c1Cl [Compound 47] | 0 to 29%

Same assay, conditions: post-emergence, 336 h, SETFA: giant foxtail (Setaria faberi), 70 g ai/ha, 14 days after application, read-out: Visual Growth Reduction (%) 14 Days After Application SETFA

Row | Compound | pest or weed control at 70 g/ha
23 | COC(=O)c1nc(-c2ccc(C(F)(F)F)nc2F)nc(N)c1Cl [Compound 47] | 0 to 29%

Same assay, conditions: post-emergence, 336 h, SETFA: giant foxtail (Setaria faberi), 140 g ai/ha, 14 days after application, read-out: Visual Growth Reduction (%) 14 Days After Application SETFA

Row | Compound | pest or weed control at 140 g/ha
24 | COC(=O)c1nc(-c2ccc(C(F)(F)F)nc2F)nc(N)c1Cl [Compound 47] | 0 to 29%

Same assay, conditions: post-emergence, 336 h, SORVU: grain sorghum (Sorghum vulgare), 70 g ai/ha, 14 days after application, read-out: Visual Growth Reduction (%) 14 Days After Application SORVU

Row | Compound | pest or weed control at 70 g/ha
25 | COC(=O)c1nc(-c2ccc(C(F)(F)F)nc2F)nc(N)c1Cl [Compound 47] | 0 to 29%

Same assay, conditions: post-emergence, 336 h, SORVU: grain sorghum (Sorghum vulgare), 140 g ai/ha, 14 days after application, read-out: Visual Growth Reduction (%) 14 Days After Application SORVU

Row | Compound | pest or weed control at 140 g/ha
26 | COC(=O)c1nc(-c2ccc(C(F)(F)F)nc2F)nc(N)c1Cl [Compound 47] | 0 to 29%

Same assay, conditions: post-emergence, 336 h, TRZSS (crop), 70 g ai/ha, 14 days after application, read-out: Visual Growth Reduction (%) 14 Days After Application TRZSS

Row | Compound | pest or weed control at 70 g/ha
27 | COC(=O)c1nc(-c2ccc(C(F)(F)F)nc2F)nc(N)c1Cl [Compound 47] | 0 to 29%

Same assay, conditions: post-emergence, 336 h, TRZSS (crop), 140 g ai/ha, 14 days after application, read-out: Visual Growth Reduction (%) 14 Days After Application TRZSS

Row | Compound | pest or weed control at 140 g/ha
28 | COC(=O)c1nc(-c2ccc(C(F)(F)F)nc2F)nc(N)c1Cl [Compound 47] | 0 to 29%

Same assay, conditions: post-emergence, 336 h, ZEAMX: maize, corn (Zea mays), 70 g ai/ha, 14 days after application, read-out: Visual Growth Reduction (%) 14 Days After Application ZEAMX

Row | Compound | pest or weed control at 70 g/ha
29 | COC(=O)c1nc(-c2ccc(C(F)(F)F)nc2F)nc(N)c1Cl [Compound 47] | 0 to 29%

Same assay, conditions: post-emergence, 336 h, ZEAMX: maize, corn (Zea mays), 140 g ai/ha, 14 days after application, read-out: Visual Growth Reduction (%) 14 Days After Application ZEAMX

Row | Compound | pest or weed control at 140 g/ha
30 | COC(=O)c1nc(-c2ccc(C(F)(F)F)nc2F)nc(N)c1Cl [Compound 47] | 0 to 29%

Tested on: not given
Test: not given
Settings: not given

Row | melting point | Compound
31 | 150 to 153 °C | COC(=O)c1nc(-c2ccc(C(F)(F)F)nc2F)nc(N)c1Cl [Compound 47]
